For 7 compounds, mutagenic call results are on record in PubChem BioAssay AID1259407 (Chemical Carcinogenesis Research Information System (CCRIS), 2018).

Activity calls are given as the source filed them. The rule behind the calls is not given here.

The series relates to CCRIS mutagenicity, Ames/micronucleus/aberration tests. Put plainly: CCRIS mutagenicity studies.
The mark [1] stands for this setting: Test System: AMES SALMONELLA TYPHIMURIUM, Strain/Indicator: TA98, Metabolic Activation: NONE, Method: STANDARD PLATE.
Setting [2] is: Test System: AMES SALMONELLA TYPHIMURIUM, Strain/Indicator: TA100, Metabolic Activation: NONE, Method: STANDARD PLATE.

For the compound `OCc1cc2ccccc2c2ccc3ccccc3c12`, the mutagenic call reads like this: (Test System: AMES SALMONELLA TYPHIMURIUM, Strain/Indicator: TA98, Metabolic Activation: RAT, LIVER, CYTOSOL AND PAPS GENERATING SYSTEM, Method: PREINCUBATION) “active; positive”; (Test System: AMES SALMONELLA TYPHIMURIUM, Strain/Indicator: TA98, Metabolic Activation: RAT, LIVER, S-9 AND NADPH GENERATING SYSTEM, Method: PREINCUBATION) “inactive; negative”.

Take `CN(N=O)C(CCC(=O)O)c1cccnc1` (stereo not drawn): the mutagenic call (Test System: UDS RODENT HEPATOCYTES, Metabolic Activation: NONE) is “inactive; negative”.

In the case of `C=C(C)C(=O)OCCCCCOC(=O)C(=C)C`, the mutagenic call under setting [1] was “inactive; negative”; the mutagenic call (Test System: AMES SALMONELLA TYPHIMURIUM, Strain/Indicator: TA98, Metabolic Activation: RAT, LIVER, S-9, AROCLOR 1254, Method: STANDARD PLATE) was “inactive; negative”; the mutagenic call (Test System: AMES SALMONELLA TYPHIMURIUM, Strain/Indicator: TA98, Metabolic Activation: RAT, LIVER, S-9, SODIUM PHENOBARBITAL, Method: STANDARD PLATE) is “inactive; negative”; the mutagenic call under setting [2] was “inactive; negative”; the mutagenic call (Test System: AMES SALMONELLA TYPHIMURIUM, Strain/Indicator: TA100, Metabolic Activation: RAT, LIVER, S-9, AROCLOR 1254, Method: STANDARD PLATE) is “inactive; negative”; the mutagenic call (Test System: AMES SALMONELLA TYPHIMURIUM, Strain/Indicator: TA100, Metabolic Activation: RAT, LIVER, S-9, SODIUM PHENOBARBITAL, Method: STANDARD PLATE) is “inactive; negative”. In addition, the mutagenic call is “inactive; negative” (Test System: AMES SALMONELLA TYPHIMURIUM, Strain/Indicator: TA1535, Metabolic Activation: NONE, Method: STANDARD PLATE); “inactive; negative” (Test System: AMES SALMONELLA TYPHIMURIUM, Strain/Indicator: TA1535, Metabolic Activation: RAT, LIVER, S-9, AROCLOR 1254, Method: STANDARD PLATE); “inactive; negative” (Test System: AMES SALMONELLA TYPHIMURIUM, Strain/Indicator: TA1535, Metabolic Activation: RAT, LIVER, S-9, SODIUM PHENOBARBITAL, Method: STANDARD PLATE); “inactive; negative” (Test System: AMES SALMONELLA TYPHIMURIUM, Strain/Indicator: TA1537, Metabolic Activation: NONE, Method: STANDARD PLATE); “inactive; negative” (Test System: AMES SALMONELLA TYPHIMURIUM, Strain/Indicator: TA1537, Metabolic Activation: RAT, LIVER, S-9, AROCLOR 1254, Method: STANDARD PLATE); “inactive; negative” (Test System: AMES SALMONELLA TYPHIMURIUM, Strain/Indicator: TA1537, Metabolic Activation: RAT, LIVER, S-9, SODIUM PHENOBARBITAL, Method: STANDARD PLATE). The mutagenic call runs as follows: (Test System: AMES SALMONELLA TYPHIMURIUM, Strain/Indicator: TA1538, Metabolic Activation: NONE, Method: STANDARD PLATE) “inactive; negative”; (Test System: AMES SALMONELLA TYPHIMURIUM, Strain/Indicator: TA1538, Metabolic Activation: RAT, LIVER, S-9, AROCLOR 1254, Method: STANDARD PLATE) “inactive; negative”; (Test System: AMES SALMONELLA TYPHIMURIUM, Strain/Indicator: TA1538, Metabolic Activation: RAT, LIVER, S-9, SODIUM PHENOBARBITAL, Method: STANDARD PLATE) “inactive; negative”.

Consider `O=C(NCCCl)Nc1ncc([N+](=O)[O-])s1`, for which the mutagenic call under setting [1] is “active; positive” and the mutagenic call under setting [2] was “active; positive”.

Turning to `O=CN(O)c1ccc(Oc2c(Cl)cc(Cl)cc2Cl)cc1`, the mutagenic call was “inactive; negative” under setting [2] and “active; positive” (Test System: AMES SALMONELLA TYPHIMURIUM, Strain/Indicator: TA100, Metabolic Activation: RAT, LIVER, S-9, KANECLOR 500, Method: STANDARD PLATE).

Turning to `O=S(=O)(O)c1ccc(-c2nnc(-c3ccccn3)nc2-c2ccc(S(=O)(=O)O)cc2)cc1`, the mutagenic call was “inactive; negative” (Test System: Mouse lymphoma, Strain/Indicator: L5178Y (tk+/tk-), Metabolic Activation: None, Method: Suspension/plate) and “inactive; negative” (Test System: Mouse lymphoma, Strain/Indicator: L5178Y (tk+/tk-), Metabolic Activation: Rat, Liver, S-9, Aroclor 1254, Method: Suspension/plate).

As for `NC(=O)N(CCC(=O)O)N=O`, the mutagenic call runs as follows: (Test System: AMES SALMONELLA TYPHIMURIUM, Strain/Indicator: TA100, Metabolic Activation: NONE, Method: PREINCUBATION) “active; positive”; (Test System: AMES SALMONELLA TYPHIMURIUM, Strain/Indicator: TA1535, Metabolic Activation: NONE, Method: PREINCUBATION) “active; positive”; (Test System: E. COLI B, Strain/Indicator: H/R30R, Metabolic Activation: NONE) “active; positive”; (Test System: E. COLI B, Strain/Indicator: HS30R, Metabolic Activation: NONE) “active; positive”.
